Data: ChEMBL document CHEMBL5042492, “Noncovalent CDK12/13 dual inhibitors-based PROTACs degrade CDK12-Cyclin K complex and induce synthetic lethality with PARP inhibitor” (Eur J Med Chem, 2022)

Assays:
MDA-MB-231 [1] = experiment: Antiproliferative activity against human MDA-MB-231 cells at 1 uM for 10 days by SRB staining based clone formation assay relative to control; format: functional; settings: MDA-MB-231, 240 h, time 10 day
MDA-MB-231 [2] = experiment: Antiproliferative activity against human MDA-MB-231 cells at 3 uM for 10 days by SRB staining based clone formation assay relative to control; format: functional; settings: MDA-MB-231, 240 h, time 10 day
CDK12/Cyclin K = CDK12/Cyclin K (Homo sapiens, UniProt Q9NYV4); experiment: Inhibition of human CDK12 (696 to 1082 residues) /cyclinK (1 to 300 residues) using ac-YSPTSPpSYSPTSFpS-YSPTSPpSY-[PEG2]-RR-amid peptide as substrate in presence of ATP measured after 2 hrs by ADP-Glo kinase assay; format: protein-complex assay
Sequence of CDK12/Cyclin K (O75909 whole entry, the tested form may be a part): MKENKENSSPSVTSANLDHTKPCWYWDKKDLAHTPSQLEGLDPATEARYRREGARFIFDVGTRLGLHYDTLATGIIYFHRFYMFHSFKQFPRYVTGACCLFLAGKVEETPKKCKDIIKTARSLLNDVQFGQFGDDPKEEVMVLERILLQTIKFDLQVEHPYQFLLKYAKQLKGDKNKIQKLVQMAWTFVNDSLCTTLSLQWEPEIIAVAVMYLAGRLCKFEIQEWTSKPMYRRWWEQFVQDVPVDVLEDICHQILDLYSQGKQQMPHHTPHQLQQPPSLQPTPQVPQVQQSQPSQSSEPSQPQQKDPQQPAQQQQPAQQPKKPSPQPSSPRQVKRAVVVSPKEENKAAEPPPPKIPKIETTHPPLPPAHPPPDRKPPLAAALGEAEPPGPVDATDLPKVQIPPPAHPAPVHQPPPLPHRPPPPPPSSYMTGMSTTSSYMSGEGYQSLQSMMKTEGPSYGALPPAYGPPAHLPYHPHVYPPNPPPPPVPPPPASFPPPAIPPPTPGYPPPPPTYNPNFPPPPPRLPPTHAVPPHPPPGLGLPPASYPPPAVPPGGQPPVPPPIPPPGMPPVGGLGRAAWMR
Sequence of CDK12/Cyclin K (Q9NYV4 whole entry, the tested form may be a part): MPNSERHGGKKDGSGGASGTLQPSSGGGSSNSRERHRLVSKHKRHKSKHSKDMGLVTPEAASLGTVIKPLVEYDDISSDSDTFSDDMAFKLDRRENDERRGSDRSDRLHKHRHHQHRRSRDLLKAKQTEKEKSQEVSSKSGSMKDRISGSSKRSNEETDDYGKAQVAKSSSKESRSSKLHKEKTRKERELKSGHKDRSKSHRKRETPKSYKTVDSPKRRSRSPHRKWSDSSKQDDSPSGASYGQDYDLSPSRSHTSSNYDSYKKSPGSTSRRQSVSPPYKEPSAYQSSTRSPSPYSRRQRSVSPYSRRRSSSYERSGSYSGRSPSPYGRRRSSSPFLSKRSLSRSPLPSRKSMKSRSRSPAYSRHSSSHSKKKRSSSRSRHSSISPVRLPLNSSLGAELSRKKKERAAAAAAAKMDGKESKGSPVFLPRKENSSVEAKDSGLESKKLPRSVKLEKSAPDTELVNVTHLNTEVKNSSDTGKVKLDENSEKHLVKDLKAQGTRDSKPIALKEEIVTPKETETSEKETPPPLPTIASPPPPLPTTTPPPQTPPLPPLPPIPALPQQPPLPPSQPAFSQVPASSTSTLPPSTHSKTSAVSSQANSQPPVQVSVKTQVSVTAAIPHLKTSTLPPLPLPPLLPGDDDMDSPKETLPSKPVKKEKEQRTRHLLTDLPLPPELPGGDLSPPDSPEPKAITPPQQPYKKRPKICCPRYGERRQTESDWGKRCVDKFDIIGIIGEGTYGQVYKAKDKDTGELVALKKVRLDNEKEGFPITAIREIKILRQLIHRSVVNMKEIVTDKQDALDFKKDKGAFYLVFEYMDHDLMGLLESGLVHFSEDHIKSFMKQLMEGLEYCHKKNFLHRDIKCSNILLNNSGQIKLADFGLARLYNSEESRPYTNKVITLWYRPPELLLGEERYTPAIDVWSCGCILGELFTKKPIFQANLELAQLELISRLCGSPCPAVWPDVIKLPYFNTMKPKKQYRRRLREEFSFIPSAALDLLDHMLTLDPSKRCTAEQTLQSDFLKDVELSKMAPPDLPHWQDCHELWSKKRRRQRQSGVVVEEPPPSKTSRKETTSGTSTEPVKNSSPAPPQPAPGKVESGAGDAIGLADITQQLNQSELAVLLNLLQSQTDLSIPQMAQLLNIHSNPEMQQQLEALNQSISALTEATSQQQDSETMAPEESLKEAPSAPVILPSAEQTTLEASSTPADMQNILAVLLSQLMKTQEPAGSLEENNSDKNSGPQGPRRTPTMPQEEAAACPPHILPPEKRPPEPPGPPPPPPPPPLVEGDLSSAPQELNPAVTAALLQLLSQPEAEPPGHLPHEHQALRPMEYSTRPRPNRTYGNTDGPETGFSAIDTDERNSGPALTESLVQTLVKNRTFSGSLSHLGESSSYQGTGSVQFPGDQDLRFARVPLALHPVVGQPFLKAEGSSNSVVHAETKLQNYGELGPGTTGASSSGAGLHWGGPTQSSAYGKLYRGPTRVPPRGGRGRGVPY

| IC50 (CDK12/Cyclin K) | SMILES | inhibition at 1 µM (MDA-MB-231 [1]) | inhibition at 3 µM (MDA-MB-231 [2]) |
| --- | --- | --- | --- |
|  | O=C(c1cc(Cc2n[nH]c(=O)c3ccccc23)ccc1F)N1CCN(C(=O)C2CC2)CC1 [OLAPARIB] | 12.4% | 98% |
| 237 nM | COCCOCCOc1cc2[nH]c(CNc3nc(N4CCOCC4)nc4c3ncn4C(C)C)nc2cc1F |  |  |
